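Growth conditions: 96-well plates. Treatment: test compound, 48 hours, 5 concentrations. Analysis: linear interpolation between bracketing concentrations; unreached endpoints set to highest concentration. GI50 is the concentration that inhibits growth by half. The concentration for full growth arrest is given as TGI.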
Legend:
Assay in all cases: NCI tumour cell line growth inhibition, 48 h
HCC-2998 colon = test system: HCC-2998 colon
UACC-257 melanoma = test system: UACC-257 melanoma
OVCAR-8 ovarian = test system: OVCAR-8 ovarian
A549 NSCLC = test system: A549 NSCLC
HCT-15 colon = test system: HCT-15 colon
DU-145 prostate = test system: DU-145 prostate
NCI-H23 lung = test system: NCI-H23 lung
CAKI-1 renal = test system: CAKI-1 renal
SNB-19 CNS = test system: SNB-19 CNS
UO-31 renal = test system: UO-31 renal
MDA-MB-435 = test system: MDA-MB-435
M14 melanoma = test system: M14 melanoma
786-0 renal = test system: 786-0 renal
T-47D breast = test system: T-47D breast
RXF 393 renal = test system: RXF 393 renal
SK-MEL-28 melanoma = test system: SK-MEL-28 melanoma
MALME-3M melanoma = test system: MALME-3M melanoma
SN12C renal = test system: SN12C renal
HL-60(TB) leukemia = test system: HL-60(TB) leukemia
ACHN renal = test system: ACHN renal
OVCAR-5 ovarian = test system: OVCAR-5 ovarian
IGROV1 ovarian = test system: IGROV1 ovarian
LOX IMVI melanoma = test system: LOX IMVI melanoma
UACC-62 melanoma = test system: UACC-62 melanoma
SK-MEL-2 melanoma = test system: SK-MEL-2 melanoma
NCI-H522 lung = test system: NCI-H522 lung
KM12 colon = test system: KM12 colon
SR leukemia = test system: SR leukemia
EKVX NSCLC = test system: EKVX NSCLC

## Cc1cn(-c2cc(NC(=O)c3cncc(C#Cc4cnc5ccc(O[C@@H]6CCOC6)nn45)c3)cc(C(F)(F)F)c2)cn1
HCC-2998 colon
  GI50: 320 nM
  TGI: 1500 nM
UACC-257 melanoma
  GI50: 467 nM
  TGI: 2750 nM
OVCAR-8 ovarian
  GI50: 257 nM
  TGI: 1140 nM
A549 NSCLC
  GI50: 206 nM
  TGI: 958 nM
HCT-15 colon
  GI50: 687 nM
  TGI: 2370 nM
DU-145 prostate
  GI50: 222 nM
  TGI: 1580 nM
NCI-H23 lung
  GI50: 190 nM
  TGI: 784 nM
CAKI-1 renal
  GI50: 495 nM
  TGI: 1510 nM
SNB-19 CNS
  GI50: 261 nM
  TGI: 1750 nM
UO-31 renal
  GI50: 1450 nM
  TGI: 3550 nM
MDA-MB-435
  GI50: 144 nM
  TGI: 714 nM
M14 melanoma
  GI50: 138 nM
  TGI: 353 nM
786-0 renal
  GI50: 286 nM
  TGI: 936 nM
T-47D breast
  GI50: 442 nM
  TGI: 4260 nM
RXF 393 renal
  GI50: 215 nM
  TGI: 535 nM
SK-MEL-28 melanoma
  GI50: 312 nM
  TGI: 1090 nM
MALME-3M melanoma
  GI50: 164 nM
  TGI: 693 nM
SN12C renal
  GI50: 85.6 nM
  TGI: 601 nM
HL-60(TB) leukemia
  GI50: 181 nM
  TGI: 613 nM
ACHN renal
  GI50: 689 nM
  TGI: 2770 nM
OVCAR-5 ovarian
  GI50: 268 nM
  TGI: 1670 nM
IGROV1 ovarian
  GI50: 103 nM
  TGI: 534 nM
LOX IMVI melanoma
  GI50: 85.6 nM
  TGI: 535 nM
UACC-62 melanoma
  GI50: 204 nM
  TGI: 949 nM
SK-MEL-2 melanoma
  GI50: 210 nM
  TGI: 512 nM
NCI-H522 lung
  GI50: 111 nM
  TGI: 330 nM
KM12 colon
  TGI: 1790 nM
SR leukemia
  GI50: 52.7 nM
  TGI: 936 nM
EKVX NSCLC
  GI50: 257 nM

Reference: PubChem BioAssay (NCI)
